By melting point is commonly meant the temperature, or range, at which the solid turns liquid.

Data set [1] can be described thus: Fluorescence on irradiation with and without added zinc ions. The class given is physicochemical.
Data set [2] is described as follows: Titration with zinc ions monitored by ultraviolet and visible absorption spectra. The class given is binding. How it is done: TQEN was titrated with zinc ions, and changes of ultraviolet and visible absorption spectra were monitored.
In the same manner as in Test Example 3, solution of 6OMeTQEN (concentration of 6OMeTQEN: 34 μM) in water-containing DMF (DMF:water=1:1) was titrated with zinc ions (0 to 68 μM), and changes in absorption were monitored by measuring ultraviolet and visible absorption spectra (FIG. 8).

The conditions of data set [3]: NMR titration.
The nature of data set [4]: Fluorescent responses in the presence of various metal ions.

In turn, `COc1ccc2nc(CN(CCN(Cc3ccc4cc(OC)ccc4n3)Cc3ccc4cc(OC)ccc4n3)Cc3ccc4cc(OC)ccc4n3)ccc2c1` [6OMeTQEN, N,N,N′,N′-tetrakis(6-methoxy-2-quinolylmethyl)-ethylenediamine] returned a melting point of 168 to 170 °C. The “fluorescence wavelength when zinc ions were added” value in data set [1] (excitation 340 nm, DMF:water=1:1, 34 μM, zinc ions 0 to 68 μM) turned out to be 410 nm. Moreover, in data set [1] (irradiated with light of 340 nm, DMF:water=1:1, 34 μM), the “fluorescence without zinc ions” value is “substantially no fluorescence was emitted”. Further, the “absorption wavelength longer than that of TQEN by” value in data set [2] (34 μM in DMF:water=1:1) is given as “about 20 nm”. In data set [2] (34 μM in DMF:water=1:1, zinc ions 0 to 68 μM), the “absorption wavelength extended to” value is “around 350 nm”.
The molecule `c1ccc2nc(CN(CCN(Cc3ccc4ccccc4n3)Cc3ccc4ccccc4n3)Cc3ccc4ccccc4n3)ccc2c1` [TQEN, N,N,N′,N′-tetrakis(2-quinolylmethyl)ethylenediamine] returned a melting point of 196 to 198 °C. Besides, the “fluorescence wavelength when zinc ions were added” value in data set [1] (excitation 317 nm, DMF or DMF:water=1:1) was determined as 383 nm. For the same molecule, the “fluorescence without zinc ions” value in data set [1] (irradiated with light of 317 nm in DMF or DMF:water=1:1) is given as “substantially no fluorescence was emitted”. Also, the “exchange rate between free and zinc-bound ligand” value in data set [3] is “slower than the time scale of NMR”. In data set [4], the “fluorescence intensity in the presence of cadmium ions, relative to that in the presence of zinc ions” value was “about 60%”.

The record behind these values is patent publication US7541467B2, “Fluorescent zinc ion sensor” (Sekisui Medical Co., Ltd., priority 2004, dated 2009).
